Test system: REV1 CTD-REV7 interaction
Test: ELISA assay probing the REV1 CTD-REV7 interaction
Assay type: binding, mouse
Conditions: ratio of test compound IC50 to RE01 IC50
Method: The ELISA assay for probing the REV1 CTD-REV7 interaction was carried out by immobilizing 50 nM His8-tagged REV7/3 in 200 μL phosphate-buffered saline (PBS, Gibco) containing 0.2% BSA in a Ni-NTA coated 96-well plate (HisSorb, Qiagen) for 30 minutes. Unbound His8-tagged REV7/3 was removed by washing the wells four times with PBS containing 0.05% Tween-20. […] After incubation for 30 minutes, the wells were washed four times with PBS containing 0.05% Tween-20 to remove the unbound FLAG-tagged POL κ RIR-REV1 CTD. A solution of the anti-FLAG horseradish peroxidase (HRP)-conjugated antibody (Sigma-Aldrich) in PBS containing 0.2% BSA was then added to the wells. After incubating for 1 hour, the antibody was washed off four times with PBS containing 0.05% Tween-20. The 3,3′,5,5′-tetramethylbenzedine (TMB) substrate (SureBlue TMB, Seracare) was added to the wells. After incubation of 20-30 minutes, the reaction was quenched with 1 M HCl. A SpectraMax plate reader (Molecular Devices) was used to measure absorbance at 450 nm.

| Compound | Relative IC50 Ratio |
| --- | --- |
| Cc1ccc(Nc2[nH]c3c(Cl)ccc([N+](=O)[O-])c3c(=O)c2C(=O)CC(C)C)c(C)c1 [RE22, 8-chloro-2-((2,4-dimethylphenyl)amino)-3-(3-methylbutanoyl)-5-nitroquinolin-4(1H)-one] | C (C represents a ratio of test compound IC50 to RE01 IC50 between 1.5-10) |
| CC(C)CC(=O)c1c(Nc2ccc(Cl)cc2Cl)[nH]c2c(Cl)ccc(C(F)(F)F)c2c1=O [RE26, 8-chloro-2-((2,4-dichlorophenyl)amino)-3-(3-methylbutanoyl)-5-(trifluoromethyl)quinolin-4(1H)-one] | C (C represents a ratio of test compound IC50 to RE01 IC50 between 1.5-10) |
| CC(C)CC(=O)c1c(Nc2ccc(C(C)C)cc2)[nH]c2c(Cl)ccc([N+](=O)[O-])c2c1=O [RE21, 8-chloro-2-((4-isopropylphenyl)amino)-3-(3-methylbutanoyl)-5-nitroquinolin-4(1H)-one] | C (C represents a ratio of test compound IC50 to RE01 IC50 between 1.5-10) |
| CC(O)c1c(Nc2ccc(Cl)cc2Cl)[nH]c2c(Cl)ccc([N+](=O)[O-])c2c1=O (stereo not drawn) [RE15, 8-chloro-2-((2,4-dichlorophenyl)amino)-3-(1-hydroxyethyl)-5-nitroquinolin-4(1H)-one] | B (B represents a ratio of test compound IC50 so to RE1 IC50 between 0.8 and 1.5) |
| O=C(O)/C(O)=C/C(=O)c1c(Nc2ccc(Cl)cc2Cl)[nH]c2c(Cl)ccc([N+](=O)[O-])c2c1=O [RE13, (Z)-4-(8-chloro-2-((2,4-dichlorophenyl)amino)-5-nitro-4-oxo-1,4-dihydroquinolin-3-yl)-2-hydroxy-4-oxobut-2-enoic acid] | A (A represents a ratio of test compound IC50 to RE01 IC50 of less than 0.8) |
| CC(C)CC(=O)c1c(Nc2ccc(Cl)cc2Cl)[nH]c2c(Br)ccc([N+](=O)[O-])c2c1=O [RE39, 8-bromo-2-((2,4-dichlorophenyl)amino)-3-(3-methylbutanoyl)-5-nitroquinolin-4(1H)-one] | B (B represents a ratio of test compound IC50 so to RE1 IC50 between 0.8 and 1.5) |
| Cc1ccc(Cl)c2[nH]c(Nc3ccc(Cl)cc3Cl)c(C(=O)CC(C)C)c(=O)c12 [RE27, 8-chloro-2-((2,4-dichlorophenyl)amino)-5-methyl-3-(3-methylbutanoyl)quinolin-4(1H)-one] | C (C represents a ratio of test compound IC50 to RE01 IC50 between 1.5-10) |
| CC(C)CC(=O)c1c(Nc2ccccc2Cl)[nH]c2c(Cl)ccc([N+](=O)[O-])c2c1=O [RE23, 8-chloro-2-((2-chlorophenyl)amino)-3-(3-methylbutanoyl)-5-nitroquinolin-4(1H)-one] | B (B represents a ratio of test compound IC50 so to RE1 IC50 between 0.8 and 1.5) |
| CC(C)CC(=O)c1c(Nc2c(F)cc(F)cc2F)[nH]c2c(Cl)ccc([N+](=O)[O-])c2c1=O [RE33, 8-chloro-3-(3-methylbutanoyl)-5-nitro-2-((2,4,6-trifluorophenyl)amino)quinolin-4(1H)-one] | C (C represents a ratio of test compound IC50 to RE01 IC50 between 1.5-10) |
| CC(=O)c1c(Nc2ccc(Cl)cc2Cl)[nH]c2c(Cl)ccc([N+](=O)[O-])c2c1=O [RE12, 3-acetyl-8-chloro-2-((2,4-dichlorophenyl)amino)-5-nitroquinolin-4(1H)-one] | B (B represents a ratio of test compound IC50 so to RE1 IC50 between 0.8 and 1.5) |
| CC(C)CC(=O)c1c(Nc2ccc(Cl)cc2Cl)[nH]c2c(Cl)cccc2c1=O [RE25, 8-chloro-2-((2,4-dichlorophenyl)amino)-3-(3-methylbutanoyl)quinolin-4(1H)-one] | C (C represents a ratio of test compound IC50 to RE01 IC50 between 1.5-10) |
| COc1ccc([N+](=O)[O-])c2c(=O)c(C(=O)CC(C)C)c(Nc3ccc(Cl)cc3Cl)[nH]c12 [RE37, 2-((2,4-dichlorophenyl)amino)-8-methoxy-3-(3-methylbutanoyl)-5-nitroquinolin-4(1H)-one] | C (C represents a ratio of test compound IC50 to RE01 IC50 between 1.5-10) |
| CC(C)CC(=O)c1c(Nc2ccc(C(=O)O)cc2Cl)[nH]c2c(Cl)ccc([N+](=O)[O-])c2c1=O [RE06, 3-chloro-4-((8-chloro-3-(3-methylbutanoyl)-5-nitro-4-oxo-1,4-dihydroquinolin-2-yl)amino)benzoic acid] | C (C represents a ratio of test compound IC50 to RE01 IC50 between 1.5-10) |
| CC(=NO)c1c(Nc2ccc(Cl)cc2Cl)[nH]c2c(Cl)ccc([N+](=O)[O-])c2c1=O [RE14, 8-chloro-2-((2,4-dichlorophenyl)amino)-3-(1-(hydroxyimino)ethyl)-5-nitroquinolin-4(1H)-one] | B (B represents a ratio of test compound IC50 so to RE1 IC50 between 0.8 and 1.5) |
| CC(C)CC(=O)c1c(Nc2ccc(Cl)cc2)[nH]c2c(Cl)ccc([N+](=O)[O-])c2c1=O [RE20, 8-chloro-2-((4-chlorophenyl)amino)-3-(3-methylbutanoyl)-5-nitroquinolin-4(1H)-one] | C (C represents a ratio of test compound IC50 to RE01 IC50 between 1.5-10) |
| CC(C)CC(=O)c1c(Nc2ccc(Cl)c(Cl)c2)[nH]c2c(Cl)ccc([N+](=O)[O-])c2c1=O [RE31, 8-chloro-2-((3,4-dichlorophenyl)amino)-3-(3-methylbutanoyl)-5-nitroquinolin-4(1H)-one] | C (C represents a ratio of test compound IC50 to RE01 IC50 between 1.5-10) |
| CC(C)CC(=O)c1c(Nc2ccc(I)cc2I)[nH]c2c(Cl)ccc([N+](=O)[O-])c2c1=O [RE17, 8-chloro-2-((2,4-diiodophenyl)amino)-3-(3-methylbutanoyl)-5-nitroquinolin-4(1H)-one] | B (B represents a ratio of test compound IC50 so to RE1 IC50 between 0.8 and 1.5) |
| CC(C)CC(=O)c1c(Nc2ccc(F)cc2F)[nH]c2c(Cl)ccc([N+](=O)[O-])c2c1=O [RE24, 8-chloro-2-((2,4-difluorophenyl)amino)-3-(3-methylbutanoyl)-5-nitroquinolin-4(1H)-one] | C (C represents a ratio of test compound IC50 to RE01 IC50 between 1.5-10) |
| CC(C)CC(=O)c1c(Nc2ccc3ccccc3c2)[nH]c2c(Cl)ccc([N+](=O)[O-])c2c1=O [RE19, 8-chloro-3-(3-methylbutanoyl)-2-(naphthalen-2-ylamino)-5-nitroquinolin-4(1H)-one] | B (B represents a ratio of test compound IC50 so to RE1 IC50 between 0.8 and 1.5) |
| CC(C)CC(=O)c1c(Nc2ccc(Br)cc2Br)[nH]c2c(Cl)ccc([N+](=O)[O-])c2c1=O [RE04, 8-chloro-2-((2,4-dibromophenyl)amino)-3-(3-methylbutanoyl)-5-nitroquinolin-4(1H)-one] | B (B represents a ratio of test compound IC50 so to RE1 IC50 between 0.8 and 1.5) |
| CC(C)CC(=O)c1c(Nc2ccc(Cl)cc2Cl)[nH]c2c(Cl)ccc(N)c2c1=O [RE11, 5-amino-8-chloro-2-((2,4-dichlorophenyl)amino)-3-(3-methylbutanoyl)quinolin-4(1H)-one] | C (C represents a ratio of test compound IC50 to RE01 IC50 between 1.5-10) |
| CC(C)CC(=O)c1c(Nc2ccc(Cl)cc2C(F)(F)F)[nH]c2c(Cl)ccc([N+](=O)[O-])c2c1=O [RE18, 8-chloro-2-((4-chloro-2-(trifluoromethyl)phenyl)amino)-3-(3-methylbutanoyl)-5-nitroquinolin-4(1H)-one] | A (A represents a ratio of test compound IC50 to RE01 IC50 of less than 0.8) |
| CC(C)CC(=O)c1c(Nc2ccc(Cl)cc2Cl)[nH]c2c(F)ccc([N+](=O)[O-])c2c1=O [RE38, 2-((2,4-dichlorophenyl)amino)-8-fluoro-3-(3-methylbutanoyl)-5-nitroquinolin-4(1H)-one] | B (B represents a ratio of test compound IC50 so to RE1 IC50 between 0.8 and 1.5) |
| COc1ccc(Cl)c2[nH]c(Nc3ccc(Cl)cc3Cl)c(C(=O)CC(C)C)c(=O)c12 [RE29, 8-chloro-2-((2,4-dichlorophenyl)amino)-5-methoxy-3-(3-methylbutanoyl)quinolin-4(1H)-one] | A (A represents a ratio of test compound IC50 to RE01 IC50 of less than 0.8) |
| CC(C)CC(=O)c1c(Nc2ccccc2)[nH]c2c(Cl)ccc([N+](=O)[O-])c2c1=O [RE16, 8-chloro-3-(3-methylbutanoyl)-5-nitro-2-(phenylamino)quinolin-4(1H)-one] | C (C represents a ratio of test compound IC50 to RE01 IC50 between 1.5-10) |
| CC(C)CC(=O)c1c(Nc2ccc(Cl)cc2Cl)[nH]c2c(Cl)ccc(O)c2c1=O [RE30, 8-chloro-2-((2,4-dichlorophenyl)amino)-5-hydroxy-3-(3-methylbutanoyl)quinolin-4(1H)-one] | C (C represents a ratio of test compound IC50 to RE01 IC50 between 1.5-10) |
| CC(C)CC(=O)c1c(Nc2ccc(Cl)cc2Cl)[nH]c2c(Cl)cc([N+](=O)[O-])cc2c1=O [RE34, 8-chloro-2-((2,4-dichlorophenyl)amino)-3-(3-methylbutanoyl)-6-nitroquinolin-4(1H)-one] | A (A represents a ratio of test compound IC50 to RE01 IC50 of less than 0.8) |
